# Assays:
# [1] = molecular target: T1, acetylcholinesterase (AChE) (Rattus norvegicus, UniProt P37136); experiment: In vitro inhibition of AChE (cholinesterase assay, Ellman method); assay type: biochemical
# T1 construct: from tissue; host or cells: rat brain cortex
# T1 sequence (P37136 32-614): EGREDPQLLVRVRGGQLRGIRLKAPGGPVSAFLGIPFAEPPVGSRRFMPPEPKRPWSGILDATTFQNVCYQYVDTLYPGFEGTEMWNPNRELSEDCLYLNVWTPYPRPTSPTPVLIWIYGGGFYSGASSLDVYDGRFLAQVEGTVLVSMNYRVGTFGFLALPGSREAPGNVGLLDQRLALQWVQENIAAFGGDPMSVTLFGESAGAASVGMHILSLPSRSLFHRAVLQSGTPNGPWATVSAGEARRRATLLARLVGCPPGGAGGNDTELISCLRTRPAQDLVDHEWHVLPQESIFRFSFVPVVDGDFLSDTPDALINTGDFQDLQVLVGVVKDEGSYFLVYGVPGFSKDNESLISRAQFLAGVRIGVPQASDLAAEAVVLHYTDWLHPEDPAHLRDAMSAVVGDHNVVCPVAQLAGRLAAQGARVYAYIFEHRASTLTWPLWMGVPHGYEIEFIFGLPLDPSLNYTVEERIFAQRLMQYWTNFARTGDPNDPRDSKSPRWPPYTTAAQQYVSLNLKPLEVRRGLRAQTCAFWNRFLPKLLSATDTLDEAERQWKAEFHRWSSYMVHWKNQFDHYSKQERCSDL
# Procedure: The in vitro inhibition of the enzymes acetylcholinesterase (AChE) and butyrylcholinesterase (BChE) were assessed. BChE, like AChE, breaks down acetylcholine (ACh) but is found in plasma and other organs such as the liver, skin and gastrointestinal tract.
# The enzymes, AChE and BChE, used in the inhibition studies were prepared from the cortex and serum of decapitated rats, respectively.
# [2] = molecular target: T2, butyrylcholinesterase (BChE) (Rattus norvegicus, UniProt Q9JKC1); experiment: biochemical
# T2 construct: from tissue; host or cells: rat serum
# T2 sequence (Q9JKC1 24-597): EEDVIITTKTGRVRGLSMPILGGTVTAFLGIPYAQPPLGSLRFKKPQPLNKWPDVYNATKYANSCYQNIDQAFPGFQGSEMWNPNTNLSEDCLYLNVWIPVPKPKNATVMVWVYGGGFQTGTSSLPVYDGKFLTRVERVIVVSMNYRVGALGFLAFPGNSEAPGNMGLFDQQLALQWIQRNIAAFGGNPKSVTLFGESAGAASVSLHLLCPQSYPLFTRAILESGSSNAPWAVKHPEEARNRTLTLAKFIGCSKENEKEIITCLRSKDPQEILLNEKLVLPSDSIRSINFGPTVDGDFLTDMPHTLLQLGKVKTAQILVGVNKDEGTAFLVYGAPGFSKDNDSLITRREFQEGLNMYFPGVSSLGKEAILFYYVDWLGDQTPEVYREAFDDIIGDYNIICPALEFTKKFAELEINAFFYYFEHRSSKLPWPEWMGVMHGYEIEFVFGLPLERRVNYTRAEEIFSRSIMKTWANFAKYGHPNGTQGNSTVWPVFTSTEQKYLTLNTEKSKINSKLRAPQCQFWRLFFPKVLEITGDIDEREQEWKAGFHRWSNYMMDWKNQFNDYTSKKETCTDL
# [3] = test system: scopolamine-induced memory impaired rats; experiment: Morris water maze, scopolamine-induced memory impairment; assay type: in vivo, rat; conditions: tacrine 1.5 mg/kg, scopolamine 0.1 mg/kg i.p.
# Procedure: The Morris water maze consists of a water pool with a hidden, submerged escape platform. The rats must learn, over a period of consecutive days, the location of the platform using either contextual or local cues. The time taken to locate the hidden platform (escape latency) is a measure of the animal's cognitive abilities.
# (§1) Scopolamine (0.1 mg/kg) was first i.p. administered to young adult rats to impair their memories. Scopolamine-induced memory impaired rats were then orally administered one of three different doses of compound B (0.025, 0.050, or 0.100 mg/kg) and subjected to the Morris water maze over a period of 4 days. On each day, the time taken for the rats to detect the hidden platform in the water maze was measured, in seconds.
# as §1, with “C (0.1, 0.2,” for “B (0.025, 0.050,”, “0.4” for “0.100”
# as §1, with “A (0.1, 0.2,” for “B (0.025, 0.050,”, “0.4” for “0.100”
# A spatial bias (% of total distance swum in the training quadrant during spatial probe trial) for the region of the apparatus where the platform was positioned during training was also measured for compounds B and C.
# The spatial bias for the region of the testing apparatus where the hidden platform was positioned during training was measured. […] Tacrine (THA) was included for comparison purposes.
SMILES,Selectivity AchE* ([1]; IC50 (BChE)/IC50 (AChE)),IC50 ([1]; enzyme prepared from rat cortex) [nM],IC50 [2] [nM],"escape latency, compared with the novel compound [3]"
O=c1ccc2c([nH]1)CCCC2NCCCCCCCCNc1c2c(nc3ccccc13)CCCC2 (stereo not shown) [Compound D],31.52,13.6 ± 1.76,430 ± 46.7,
"Nc1c2c(nc3ccccc13)CCCC2 [Tacrine, reference compound]",,,,less effective in shortening escape latency
